Numbers after ± are expanded uncertainties.
Columns and labels:
[1] = molar heat capacity at constant pressure; conditions: 101.33 kPa, Small sample (50 mg) DSC
[2] = Molar enthalpy of transition or fusion; conditions: Crystal; DSC
[3] = Crystal; DTA

CCCCCCCCCCCCCCCCCC(=O)O [octadecanoic acid]
molar heat capacity at constant pressure ([1]; 298.15 K, Crystal): 517.75 ± 23 J/K/mol | molar heat capacity at constant pressure ([1]; 338.15 K, Liquid): 648.61 ± 28 J/K/mol | Molar enthalpy of transition or fusion [2]: 12.4 ± 0.359 kcal/mol

CCCCCCCCCCCCOS(=O)(=O)[O-].[Na+] [sodium dodecyl sulfate]
molar heat capacity at constant pressure ([1]; 298.15 K, Crystal): 444.11 ± 20 J/K/mol | molar heat capacity at constant pressure ([1]; 338.15 K, Crystal): 553.69 ± 23 J/K/mol

CCCCCCCCCCCCCC(=O)O [tetradecanoic acid]
Normal melting temperature [3]: 53.00 ± 5 °C | molar heat capacity at constant pressure ([1]; 298.15 K, Crystal): 385.95 ± 16 J/K/mol | molar heat capacity at constant pressure ([1]; 338.15 K, Liquid): 509.27 ± 21 J/K/mol | Molar enthalpy of transition or fusion [2]: 10.5 ± 0.263 kcal/mol
